# Measured values published in article PMC9207812 (ACS chemical biology, 2022).
# No end group written: not given here.
# Tests used:
# Format in all cases: binding
# WDR5 D172A [1] = molecular target: T1, WDR5 D172A (Homo sapiens, UniProt P61964, D172A); assay: Biolayer interferometry (BLI), D172A; conditions: for koff: pH 7.5, read-out: koff (dissociation rate constant); for kon: pH 7.5, read-out: kon (association rate constant)
# WDR5 P216L [2] = molecular target: T2, WDR5 P216L (Homo sapiens, UniProt P61964, P216L); assay: Biolayer interferometry (BLI), P216L; conditions: for koff: pH 7.5, read-out: koff (dissociation rate constant); for kon: pH 7.5, read-out: kon (association rate constant)
# WDR5 Y260H [3] = molecular target: T3, WDR5 Y260H (Homo sapiens, UniProt P61964, Y260H); assay: Biolayer interferometry (BLI), Y260H; conditions: for koff: pH 7.5, read-out: koff (dissociation rate constant); for kon: pH 7.5, read-out: kon (association rate constant)
# WDR5 S175L [4] = molecular target: T4, WDR5 S175L (Homo sapiens, UniProt P61964, S175L); assay: Biolayer interferometry (BLI), S175L; conditions: for koff: pH 7.5, read-out: koff (dissociation rate constant); for kon: pH 7.5, read-out: kon (association rate constant)
# WDR5 S218F [5] = molecular target: T5, WDR5 S218F (Homo sapiens, UniProt P61964, S218F); assay: Biolayer interferometry (BLI), S218F; conditions: for koff: pH 7.5, read-out: koff (dissociation rate constant); for kon: pH 7.5, read-out: kon (association rate constant)
# WDR5 D172A [6] = molecular target: T1, WDR5 D172A; assay: Steady-state fluorescence polarization (FP), D172A
# WDR5 P216L [7] = molecular target: T2, WDR5 P216L; assay: Steady-state fluorescence polarization (FP), P216L
# WDR5 Y260H [8] = molecular target: T3, WDR5 Y260H; assay: Steady-state fluorescence polarization (FP), Y260H
# WDR5 F133L [9] = molecular target: T6, WDR5 F133L (Homo sapiens, UniProt P61964, F133L); assay: Steady-state fluorescence polarization (FP), F133L
# WDR5 S175L [10] = molecular target: T4, WDR5 S175L; assay: Steady-state fluorescence polarization (FP), S175L
# WDR5 S218F [11] = molecular target: T5, WDR5 S218F; assay: Steady-state fluorescence polarization (FP), S218F
# WDR5 F133L [12] = molecular target: T6, WDR5 F133L; assay: Biolayer interferometry (BLI), F133L; conditions: for increase in KD-BLI: F133L versus native WDR5; for koff: pH 7.5, read-out: koff (dissociation rate constant); for kon: pH 7.5, read-out: kon (association rate constant)
Compound,Kd (WDR5 D172A [1]),koff (WDR5 D172A [1]),Kd (WDR5 P216L [2]),koff (WDR5 P216L [2]),Kd (WDR5 Y260H [3]),koff (WDR5 Y260H [3]),Kd (WDR5 S175L [4]),koff (WDR5 S175L [4]),Kd (WDR5 S218F [5]),koff (WDR5 S218F [5]),Kd (WDR5 D172A [6]),Kd (WDR5 P216L [7]),Kd (WDR5 Y260H [8]),Kd (WDR5 F133L [9]),Kd (WDR5 S175L [10]),Kd (WDR5 S218F [11]),kon (WDR5 D172A [1]),kon (WDR5 P216L [2]),kon (WDR5 Y260H [3]),Kd (WDR5 F133L [12]),other results
LNPHGSARAEVHLS-NH2 [MLL1Win],≥ 100 µM,> 1 s⁻¹,≥ 100 µM,> 1 s⁻¹,≥ 100 µM,> 1 s⁻¹,≥ 100 µM,> 1 s⁻¹,≥ 100 µM,> 1 s⁻¹,5.6 µM,> 14.6 µM,9.7 µM,> 53 µM,4.8 µM,8.1 µM,,,,,
CC(C)[C@H](NC(=O)[C@H](Cc1c[nH]cn1)NC(=O)[C@@H](N)CCC(=O)O)C(=O)N[C@H](C(=O)NCC(=O)N[C@@H](CS)C(=O)N[C@@H](C)C(=O)N[C@@H](CCCNC(=N)N)C(=O)N[C@@H](CO)C(=O)N[C@@H](CCC(=O)O)C(=O)NCC(=O)N[C@@H](Cc1ccccc1)C(=O)N[C@@H](Cc1ccc(O)cc1)C(=O)N[C@H](C(N)=O)[C@@H](C)O)[C@@H](C)O [SETd1BWin],0.26 ± 0.01 µM,0.023 ± 0.003 s⁻¹,0.37 ± 0.04 µM,0.03 ± 0.005 s⁻¹,0.23 ± 0.01 µM,0.023 ± 0.003 s⁻¹,0.056 ± 0.003 µM,0.0049 ± 0.0003 s⁻¹,0.36 ± 0.02 µM,0.023 ± 0.002 s⁻¹,0.018 ± 0.001 µM,0.028 ± 0.002 µM,0.023 ± 0.002 µM,0.82 ± 0.03 µM,0.011 ± 0.001 µM,0.037 ± 0.001 µM,89000 ± 14000 M⁻¹ s⁻¹,80000 ± 8000 M⁻¹ s⁻¹,100000 ± 10000 M⁻¹ s⁻¹,6 µM,increase in KD-BLI (WDR5 F133L [12]): between one and two orders of magnitude; koff (WDR5 F133L [12]): 0.24 ± 0.02 s⁻¹; kon (WDR5 F133L [12]): 43000 ± 12000 M⁻¹ s⁻¹; kon (WDR5 S175L [4]): 84000 ± 6000 M⁻¹ s⁻¹; kon (WDR5 S218F [5]): 63000 ± 6000 M⁻¹ s⁻¹
EHQTGSARSEGYYP-NH2 [SETd1AWin],0.9 ± 0.24 µM,0.11 ± 0.03 s⁻¹,0.38 ± 0.02 µM,0.033 ± 0.004 s⁻¹,1.1 µM,0.098 ± 0.029 s⁻¹,1.4 µM,0.089 ± 0.03 s⁻¹,0.83 ± 0.11 µM,0.046 ± 0.007 s⁻¹,0.061 ± 0.002 µM,0.039 ± 0.002 µM,0.14 ± 0.02 µM,5.7 µM,0.092 ± 0.007 µM,0.1 ± 0.01 µM,130000 ± 10000 M⁻¹ s⁻¹,86000 ± 8000 M⁻¹ s⁻¹,88000 ± 13000 M⁻¹ s⁻¹,30 µM,increase in KD-BLI (WDR5 F133L [12]): between one and two orders of magnitude; koff (WDR5 F133L [12]): 0.69 ± 0.04 s⁻¹; kon (WDR5 F133L [12]): 26000 ± 3000 M⁻¹ s⁻¹; kon (WDR5 S175L [4]): 61000 ± 7000 M⁻¹ s⁻¹; kon (WDR5 S218F [5]): 56000 ± 4000 M⁻¹ s⁻¹
VNPTGCARSEPKMS-NH2 [MLL3Win],0.14 ± 0.01 µM,0.0093 ± 0.0019 s⁻¹,0.2 ± 0.03 µM,0.011 ± 0.003 s⁻¹,0.11 ± 0.02 µM,0.0077 ± 0.0006 s⁻¹,0.33 ± 0.02 µM,0.016 ± 0.002 s⁻¹,0.53 ± 0.02 µM,0.021 ± 0.003 s⁻¹,0.012 ± 0.001 µM,0.019 ± 0.001 µM,0.022 ± 0.002 µM,1 µM,0.023 ± 0.001 µM,0.08 ± 0.007 µM,65000 ± 13000 M⁻¹ s⁻¹,53000 ± 7000 M⁻¹ s⁻¹,64000 ± 2000 M⁻¹ s⁻¹,3.7 µM,increase in KD-BLI (WDR5 F133L [12]): between one and two orders of magnitude; koff (WDR5 F133L [12]): 0.1 ± 0.01 s⁻¹; kon (WDR5 F133L [12]): 36000 ± 21000 M⁻¹ s⁻¹; kon (WDR5 S175L [4]): 49000 ± 3000 M⁻¹ s⁻¹; kon (WDR5 S218F [5]): 39000 ± 5000 M⁻¹ s⁻¹
LNPHGAARAEVYLS-NH2 [MLL4Win],1.4 µM,0.051 ± 0.01 s⁻¹,9.9 µM,0.22 ± 0.05 s⁻¹,,0.047 ± 0.028 s⁻¹,4.2 µM,0.13 ± 0.004 s⁻¹,3.4 µM,0.071 ± 0.001 s⁻¹,0.078 ± 0.003 µM,0.69 ± 0.06 µM,0.13 ± 0.01 µM,8.8 µM,0.28 ± 0.03 µM,0.42 ± 0.04 µM,37000 ± 4000 M⁻¹ s⁻¹,19000 ± 3000 M⁻¹ s⁻¹,24000 ± 3000 M⁻¹ s⁻¹,≥ 100 µM,koff (WDR5 F133L [12]): > 1 s⁻¹; kon (WDR5 S175L [4]): 30000 ± 1000 M⁻¹ s⁻¹; kon (WDR5 S218F [5]): 20000 ± 2000 M⁻¹ s⁻¹
INPTGCARSEPKIL-NH2 [MLL2Win],0.24 ± 0.01 µM,0.014 ± 0.001 s⁻¹,0.2 ± 0.05 µM,0.011 ± 0.002 s⁻¹,0.2 ± 0.02 µM,0.013 ± 0.001 s⁻¹,0.13 ± 0.01 µM,0.0063 ± 0.0001 s⁻¹,0.64 ± 0.02 µM,0.025 ± 0.002 s⁻¹,0.025 ± 0.004 µM,0.018 ± 0.003 µM,0.034 ± 0.004 µM,2.1 µM,0.011 ± 0.001 µM,0.094 ± 0.007 µM,57000 ± 6000 M⁻¹ s⁻¹,56000 ± 8000 M⁻¹ s⁻¹,66000 ± 9000 M⁻¹ s⁻¹,8.3 µM,increase in KD-BLI (WDR5 F133L [12]): between one and two orders of magnitude; koff (WDR5 F133L [12]): 0.14 ± 0.02 s⁻¹; kon (WDR5 F133L [12]): 16000 ± 1000 M⁻¹ s⁻¹; kon (WDR5 S175L [4]): 49000 ± 4000 M⁻¹ s⁻¹; kon (WDR5 S218F [5]): 40000 ± 2000 M⁻¹ s⁻¹
